Results: PMC3559838 (PLoS ONE, 2013)
Like-named read-outs stand apart in the source and are kept apart here.

Legend:
[1] = system: HepG2 cells; assay: MTS growth inhibition assay; assay type: cell-based, human; settings: Homo sapiens, HepG2, 72 h
Procedure: (§1) To the other plate, equal molar concentrations of belinostat-G were added similarly. After 72 h, cells were stained with Gentian Violet paint (0.5% w/v; B.P.) and assessed for viability. […] After incubating 24 h, 100-µL drug solution or blank medium was added into each well of 96-well plates. 72 h later, 20 µL of MTS/PES was added into each well for incubation for 3 h. OD values are measured on wavelength 490 nm. Cell growth inhibition was calculated based on the […] with subtraction of background reading for only medium containing wells. The growth inhibition was defined as the percentage of the average […] from drug-treated wells over that from control wells without treatment. The experiment was done in triplicates. IC50 values were calculated using GraphPad PRISM software (GraphPad Software, Inc., La Jolla, CA, USA).

[2] = set-up: method as in Investigator's Brochure, 2004; settings: following 5 or 7 days of treatment; ref Investigator's Brochure, 2004; cited from earlier work
[3] = set-up: method as in Investigator's Brochure, 2004; settings: dogs, ref Investigator's Brochure, 2004, cited from earlier work
[4] = set-up: method as in protocol pharmaceutical information; settings: ref protocol pharmaceutical information, cited from earlier work
[5] = set-up: method as in Investigator's Brochure, 2004; settings: dogs, ref Investigator's Brochure, 2004, cited from earlier work; remark: listed apart in the source
[6] = set-up: method as in protocol pharmaceutical information; settings: ref protocol pharmaceutical information; cited from earlier work
[7] = system: murine P388 leukemia cells; set-up: method as in Investigator's Brochure, 2004; settings: P388 IP model, ref Investigator's Brochure, 2004, cited from earlier work
[8] = set-up: method as in Plumb et al., 2003; settings: dogs, 45 minute IV infusion of 50 mg/kg; ref Plumb et al., 2003; cited from earlier work
[9] = set-up: method as in Investigator's Brochure, 2004; settings: mice, single IP injection of 20 mg/kg, ref Investigator's Brochure, 2004, cited from earlier work
[10] = system: HCT116 colon cancer cells; set-up: method as in Plumb et al., 2003; Investigator's Brochure, 2004; settings: HCT116 xenografts, 40 mg/kg/day IP once daily for 7 days; ref Plumb et al., 2003; Investigator's Brochure, 2004; cited from earlier work
[11] = system: cisplatin-resistant A2780/cp70; set-up: method as in Plumb et al., 2003; Investigator's Brochure, 2004; settings: A2780/cp70 xenografts, 10 mg/kg/day IP once daily for 7 days; ref Plumb et al., 2003; Investigator's Brochure, 2004; cited from earlier work
[12] = set-up: method as in Investigator's Brochure, 2004; settings: rats, 100 mg/kg/day, both formulations; ref Investigator's Brochure, 2004; cited from earlier work
[13] = set-up: method as in Investigator's Brochure, 2004; settings: arginine formulation, human blood ex vivo; ref Investigator's Brochure, 2004; cited from earlier work
[14] = system: HepG2 cells; assay: Gentian Violet viability staining, 24-well plates; assay type: cell-based, human; settings: 0–10 µM, 72 h
Procedure: as §1

[15] = system: Histone H3 acetylation (Ac-H3 [K9/K14]) in HepG2 cells; assay: Western blot of acetyl histone H3; assay type: cell-based, human; settings: dose increment after 5 h, time course at 10 µM
Procedure: Protein concentrations were quantified using the Bradford assay (Invitrogen). Proteins were separated on a 12% SDS-PAGE gel and transferred to nitrocellulose membrane. Nonspecific protein binding was blocked by incubating with 5% non-fat milk (BioRad Laboratories) in 0.1% PBS-Tween (PBST) at room temperature for 1 h and incubated with specific antibodies, Histone H3 and Ac-H3 [K9/K14] (Cell Signaling), at 4°C overnight. Appropriate species-specific Horseradish peroxidises-conjugated secondary antibodies were then added and incubated at room temperature for 1 h followed by detection using an enhanced chemiluminescence kit (GE Healthcare).

[16] = system: CYP2C8; set-up: method as in protocol pharmaceutical information; settings: ref protocol pharmaceutical information; cited from earlier work

## O=C(/C=C/c1cccc(S(=O)(=O)Nc2ccccc2)c1)NO [Belinostat, N-hydroxy-3-(phenylsulphamoylphenyl) acrylamide]
[1]
  IC50: 6.4 µM
[2]
  drug accumulation: no clear indication of drug accumulation
[3]; 15 mg/kg and 35 mg/kg
  increases in the rate of respiration: not significantly different
[3]; high dose (35 mg/kg)
  heart rate: small transient increase in heart rate
[3]
  electrocardiogram waveform changes (decrease in RR, PR and QT intervals): not substantially different from the control group
[4]; 1,2-propanediol
  Approximate Solubility: ~ 0.2 mg/mL
[4]; ethanol
  Approximate Solubility: > 200 mg/mL
[4]; polyethylene glycol 400
  Approximate Solubility: ~ 1.5 mg/mL
[5]; 50 mg/kg/day, arginine formulation
  systemic and local irritation adverse events (lymphopenia, lymphoid atrophy, injection site reactions): mild and fully reversible
[5]; one study
  no-observable-effect-level (NOEL): 10 mg/kg/day
[6]
  light stability: no obvious light instability
[7]; P<0.0001
  survival, 40 mg/kg/day × 5 days (from day 3) versus same total dose (200 mg/kg) as bolus on day 3: superior
[7]; P=0.009
  survival, 20 mg/kg/day for 10 days versus 40 mg/kg every two days (cumulative 200 mg/kg): better survival
[7]; p=0.49
  survival rates, every second day three times versus every day for 5 days (cumulative 270 mg/kg): no significant differences
[7]
  survival, daily dose (20, 40, or 80 mg/kg for 5 days) fractionated into two doses per day versus one daily dose: did not improve survival
[8]
  plasma t½: approximately 40 minutes
[9]; after 0.5 hour
  mean plasma concentration: 3300 ± 700 nM
[9]; by 2 hours
  mean plasma concentration: 42 ± 2 nM
[10]
  tumor growth: Growth inhibition was also observed
[11]
  tumor growth: Delay of tumor growth was observed
[12]
  systemic effects: mild
[13]
  hemolysis: No hemolysis
[14]
  cytotoxicity / cell viability (staining): significant dose-dependent cytotoxicity
[15]
  Histone H3 acetylation: time and concentration dependent increase
[16]
  CYP2C8 inhibition: weak to moderate inhibitor
